Measurements: ChEMBL document CHEMBL3877319, “Synthesis of Ofornine mimics from natural product l-vasicine as anti-hypertensive agents” (Bioorg Med Chem, 2017)

Tests used:
Format in all cases: functional
Rattus norvegicus [1] = assay: Anti-hypertensive activity in Wistar rat assessed as systolic blood pressure at 10 mg/kg, iv after 30 mins (reference value: 110 to 124.6 mmHg)
Rattus norvegicus [2] = assay: Anti-hypertensive activity in Wistar rat assessed as systolic blood pressure at 10 mg/kg, iv after 15 mins (reference value: 110 to 124.6 mmHg)
Rattus norvegicus [3] = assay: Anti-hypertensive activity in Wistar rat assessed as diastolic blood pressure at 10 mg/kg, iv after 180 mins (reference value: 77.15 to 94.4 mmHg)
Rattus norvegicus [4] = assay: Anti-hypertensive activity in Wistar rat assessed as systolic blood pressure at 10 mg/kg, iv after 120 mins (reference value: 110 to 124.6 mmHg)
Rattus norvegicus [5] = assay: Anti-hypertensive activity in Wistar rat assessed as diastolic blood pressure at 10 mg/kg, iv after 15 mins (reference value: 77.15 to 94.4 mmHg)
Rattus norvegicus [6] = assay: Anti-hypertensive activity in Wistar rat assessed as systolic blood pressure at 10 mg/kg, iv after 180 mins (reference value: 110 to 124.6 mmHg)
Rattus norvegicus [7] = assay: Anti-hypertensive activity in Wistar rat assessed as diastolic blood pressure at 10 mg/kg, iv after 5 mins (reference value: 77.15 to 94.4 mmHg)
Rattus norvegicus [8] = assay: Anti-hypertensive activity in Wistar rat assessed as diastolic blood pressure at 10 mg/kg, iv after 30 mins (reference value: 77.15 to 94.4 mmHg)
Rattus norvegicus [9] = assay: Anti-hypertensive activity in Wistar rat assessed as diastolic blood pressure at 10 mg/kg, iv after 60 mins (reference value: 77.15 to 94.4 mmHg)
Rattus norvegicus [10] = assay: Anti-hypertensive activity in Wistar rat assessed as systolic blood pressure at 10 mg/kg, iv after 60 mins (reference value: 110 to 124.6 mmHg)
Rattus norvegicus [11] = assay: Anti-hypertensive activity in Wistar rat assessed as diastolic blood pressure at 10 mg/kg, iv after 120 mins (reference value: 77.15 to 94.4 mmHg)
Rattus norvegicus [12] = assay: Anti-hypertensive activity in Wistar rat assessed as systolic blood pressure at 10 mg/kg, iv after 150 mins (reference value: 110 to 124.6 mmHg)
Rattus norvegicus [13] = assay: Anti-hypertensive activity in Wistar rat assessed as diastolic blood pressure at 10 mg/kg, iv after 150 mins (reference value: 77.15 to 94.4 mmHg)
Rattus norvegicus [14] = assay: Anti-hypertensive activity in Wistar rat assessed as systolic blood pressure at 10 mg/kg, iv after 5 mins (reference value: 110 to 124.6 mmHg)

SMILES	Activity (Rattus norvegicus [1]) [mmHg]	Activity (Rattus norvegicus [2]) [mmHg]	Activity (Rattus norvegicus [3]) [mmHg]	Activity (Rattus norvegicus [4]) [mmHg]	Activity (Rattus norvegicus [5]) [mmHg]	Activity (Rattus norvegicus [6]) [mmHg]	Activity (Rattus norvegicus [7]) [mmHg]	Activity (Rattus norvegicus [8]) [mmHg]	Activity (Rattus norvegicus [9]) [mmHg]	Activity (Rattus norvegicus [10]) [mmHg]	Activity (Rattus norvegicus [11]) [mmHg]	Activity (Rattus norvegicus [12]) [mmHg]	Activity (Rattus norvegicus [13]) [mmHg]	Activity (Rattus norvegicus [14]) [mmHg]
CCCCCCc1ccc(-c2cn([C@@H]3CCN(C(=O)c4ccccc4Nc4ccncc4)C3)nn2)cc1	111.6	104.9	91	118.9	81.7	119.9	74.8	83.6	83.25	111.9	91.75	118.7	92.8	94.4
O=C(c1ccccc1-n1cc(C2CC2)nn1)N1CC[C@@H](O)C1	118.1	114.91	86.6	120.4	90.7	123.7	79.6	84.35	82.75	120	83.3	121.7	84.3	113.8
O=C(c1ccccc1Nc1ccncc1)N1CC[C@@H](n2cc(-c3ccc(F)cc3)nn2)C1	108.6	106.2	90.58	122.6	73.8	128.9	42.9	84.63	84.8	117.6	86.3	124.6	90.3	46.6
O=C(c1ccccc1-n1cc(-c2ccc(F)cc2)nn1)N1CC[C@@H](O)C1	118.9	120.1	90.8	121.6	74.8	121.5	76.5	77.9	95	122.4	88	121.8	88.8	103.3
CCCc1cn([C@@H]2CCN(C(=O)c3ccccc3Nc3ccncc3)C2)nn1	118.8	86.8	84.5	118.1	53.4	118.8	44.5	78.5	83.7	114.8	82.7	119.9	81.5	82.7
CCCCCc1ccc(-c2cn([C@@H]3CCN(C(=O)c4ccccc4Nc4ccncc4)C3)nn2)cc1	108.4	97		115.6	67.75	115.3	59.8	79.7	81.4	111.6	80.3		77.3	86.15
O=C(c1ccccc1Nc1ccncc1)N1CC[C@@H](n2cc(-c3ccccc3)nn2)C1	100.7	94.3	86.75	116.2	65.5	121.2	58.7	70.2	72.2	109.8	80	120.8	80.15	85.3
O=C(c1ccccc1-n1cc(-c2ccc(-c3ccccc3)cc2)nn1)N1CC[C@@H](O)C1	106.9	113	78.3	107.3	82	109.6	82	79.1	86.8	110.1	87.8	116.3	81.3	112
O=C(c1ccccc1Nc1ccncc1)N1CC[C@@H](n2cc(C3CC3)nn2)C1	112.2	115.1	86.32	111.6	79.63	117.2	77.08	76.29	73.85	108.2	86.96	110.4	85.74	116.4
[N-]=[N+]=N[C@@H]1CCN(C(=O)c2ccccc2Nc2ccncc2)C1	108.4	97		115.6	67.75	115.3	59.8	79.7	81.4	111.6	80.3		77.3	86.15
CCCCCc1cn([C@@H]2CCN(C(=O)c3ccccc3Nc3ccncc3)C2)nn1	103.8	101.7	85.4	109.8	80.5	117.6	73.2	77.6	80.2	105.4	80.5	114.9	81.9	96.7
O=C(c1ccccc1Nc1ccncc1)N1CCCCC1 [OFORNINE]	89.5	89.45	90.8	90.5	61	117	53.3	62.8	64.05	88.6	64.5	113.8	77.9	83.3
C[Si](C)(C)O[C@@H]1CCNC1	119.9	119.7	84.75	118.5	85.42	121.6	84.74	87.98	83.9	117.6	89.49	122.4	88.4	119.9
O[C@H]1CCN(Cc2ccccc2Nc2ccncc2)C1	120.6	119.9	83.32	118.2	73.74	124.4	77.06	75.5	81.18	115.7	75.97	122.9	76.6	120.4
Nc1ccccc1C(=O)N1CCC(O)C1 (single isomer, unassigned)	124.3	123.4	86.45	118.8	86.88	123.1	80.42	82.62	82.62	119.5	79.57	121.4	79.95	107.8
O[C@@H]1CCN(Cc2ccccc2)C1	119.3	116.4	83.15	112.3	57.86	118.9	52.65	70.89	77.25	121.4	74.19	114.6	78.62	107.9
